From the supplement of paper PMC10331698
± gives the standard deviation of the averaged measurements.

How the values were obtained:
Assay in all cases: level (log10 ratio to DMSO vehicle control); higher = higher biomarker level / cell amount than vehicle control
Settings in all cases: in DMSO
[1] = compound: O=S(=O)(O)C(F)(F)C(F)(F)C(F)(F)C(F)(F)C(F)(F)C(F)(F)C(F)(F)C(F)(F)F [Potassium perfluorooctanesulfonate]
Experimental: (§1)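 BioMAP Diversity Plus panel of 12 human primary cell co-culture systems (3C, 4H, LPS, SAg, BT, BF4T, BE3C, CASM3C, HDF3CGF, KF3CT, MyoF, Mphg). Compounds were added 1 h before stimulation and left for 24 h (MyoF 48 h; BT 72 h for soluble read-outs or 6 d for IgG). Biomarkers were read by ELISA, cytotoxicity by SRB, PBMC viability and proliferation by Alamar Blue. Each well value was divided by the mean of 8 DMSO control wells on the same plate and log10 transformed; duplicate blinded samples were tested at 4 concentrations.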

[2] = compound: O=C(O)C(F)(F)C(F)(F)C(F)(F)C(F)(F)C(F)(F)C(F)(F)C(F)(F)C(F)(F)C(F)(F)C(F)(F)C(F)(F)C(F)(F)F [Perfluorotridecanoic acid]
Experimental: as §1

[3] = compound: O=C(O)C(F)(F)OC(F)(F)C(F)(F)OC(F)(F)C(F)(F)C(F)(F)C(F)(F)F [Perfluoro-3,6-dioxadecanoic acid]
Experimental: as §1

Hexafluoroglutaric acid = compound: O=C(O)C(F)(F)C(F)(F)C(F)(F)C(=O)O [Hexafluoroglutaric acid]
Experimental: as §1

[4] = compound: O=C(O)C(F)(F)C(F)(F)C(F)(F)C(F)(F)C(F)(F)C(F)(F)C(F)(F)C(F)(F)C(F)(F)C(F)(F)C(F)(F)C(F)(F)C(F)(F)F [Perfluorotetradecanoic acid]
Experimental: as §1

1-(Perfluorohexyl)octane = compound: CCCCCCCCC(F)(F)C(F)(F)C(F)(F)C(F)(F)C(F)(F)C(F)(F)F [1-(Perfluorohexyl)octane]
Experimental: as §1

[5] = compound: O=C(O)C(F)(F)C(F)(F)C(F)(F)C(F)(F)C(F)(F)C(F)(F)C(F)(F)C(F)(F)Cl [9-Chloro-perfluorononanoic acid]
Experimental: as §1

| Test System | level (log10) ([1]; 6700 nM) | level (log10) ([1]; 20000 nM) | level (log10) ([1]; 60000 nM) | level (log10) ([2]; 1500 nM) | level (log10) ([2]; 4400 nM) | level (log10) ([2]; 13000 nM) | level (log10) ([2]; 40000 nM) | level (log10) ([3]; 6700 nM) | level (log10) ([3]; 20000 nM) | level (log10) ([3]; 60000 nM) | level (log10) (Hexafluoroglutaric acid; 6700 nM) | level (log10) (Hexafluoroglutaric acid; 20000 nM) | level (log10) (Hexafluoroglutaric acid; 60000 nM) | level (log10) ([4]; 6700 nM) | level (log10) ([4]; 20000 nM) | level (log10) (1-(Perfluorohexyl)octane; 6700 nM) | level (log10) (1-(Perfluorohexyl)octane; 20000 nM) | level (log10) ([5]; 6700 nM) | level (log10) ([5]; 20000 nM) |
| --- | --- | --- | --- | --- | --- | --- | --- | --- | --- | --- | --- | --- | --- | --- | --- | --- | --- | --- | --- |
| MyoF:Collagen I | -0.0145 ± 0.023 | -0.0095 ± 0.013 | 0.0075 ± 0.021 | -0.0045 ± 0.019 | -0.0115 ± 0.016 | -0.016 ± 0.025 | -0.213 ± 0.037 | -0.026 ± 0.025 | -0.0525 ± 0.0021 | -0.19 ± 0.011 | -0.003 ± 0.013 | -0.0005 ± 0.016 | 0.011 ± 0.0014 | 0.0015 ± 0.0078 | 0.0215 ± 0.033 | 0.0045 ± 0.016 | -0.0205 ± 0.0035 | -0.0135 ± 0.005 | -0.29 ± 0.019 |
| CASM3C:CXCL8/IL-8 | 0.001 ± 0.027 | 0.023 ± 0.018 | 0.048 ± 0.04 | 0.002 ± 0.037 | -0.003 ± 0.025 | -0.014 ± 0.037 | -0.0155 ± 0.0021 | -0.0005 ± 0.013 | -0.008 | 0.023 ± 0.028 | -0.002 ± 0.017 | -0.016 ± 0.014 | 0.0075 ± 0.0064 | 0.012 ± 0.016 | 0.016 ± 0.028 | -0.001 ± 0.017 | 0.006 ± 0.0099 | 0.0045 ± 0.00071 | 0.0175 ± 0.016 |
| lMphg:CD62E/E-Selectin | 0.0145 ± 0.0092 | 0.052 ± 0.023 | 0.204 | -0.038 ± 0.0028 | -0.045 ± 0.0014 | -0.0395 ± 0.029 | -0.007 ± 0.0071 | 0.0095 ± 0.016 | -0.0035 ± 0.037 | 0.0135 ± 0.015 | -0.0065 ± 0.026 | 0.001 ± 0.02 | -0.0165 ± 0.043 | 0.0125 ± 0.03 | -0.006 ± 0.044 | 0.0205 ± 0.012 | -0.0145 ± 0.03 | 0.01 ± 0.0099 | 0.017 ± 0.0042 |
| BE3C:uPA | 0.0125 ± 0.0092 | -0.028 ± 0.0099 | -0.036 ± 0.016 | -0.0005 ± 0.00071 | 0.008 ± 0.0099 | -0.01 ± 0.02 | -0.0085 ± 0.046 | 0.006 ± 0.025 | -0.0045 ± 0.025 | -0.003 ± 0.011 | -0.01 ± 0.0085 | -0.017 ± 0.0042 | -0.0075 ± 0.011 | -0.0075 ± 0.05 | -0.0085 ± 0.056 | -0.0145 ± 0.012 | -0.0145 ± 0.0092 | 0.0035 ± 0.011 | -0.0125 ± 0.011 |
| MyoF:Collagen III | -0.0275 ± 0.018 | -0.028 ± 0.031 | -0.0365 ± 0.025 | -0.015 ± 0.025 | -0.0115 ± 0.012 | -0.026 ± 0.02 | -0.044 ± 0.0071 | -0.024 ± 0.0057 | -0.0445 ± 0.0035 | -0.317 ± 0.014 | 0.006 ± 0.0042 | 0.0035 ± 0.005 | 0.0055 ± 0.00071 | -0.015 | -0.002 ± 0.03 | 0.019 ± 0.03 | -0.016 ± 0.0014 | -0.033 ± 0.027 | -0.498 ± 0.0085 |
| KF3CT:CD54/ICAM-1 | -0.0165 ± 0.021 | 0.0075 ± 0.011 | 0.002 ± 0.027 | -0.03 ± 0.013 | -0.019 | -0.0285 ± 0.026 | 0.015 ± 0.017 | -0.0295 ± 0.023 | -0.0435 ± 0.0035 | -0.033 ± 0.0085 | -0.0045 ± 0.00071 | -0.014 ± 0.0057 | -0.0015 ± 0.044 | -0.003 ± 0.027 | -0.0375 ± 0.015 | 0.0045 ± 0.033 | -0.0065 ± 0.0035 | -0.0175 ± 0.00071 | -0.039 ± 0.0014 |
| HDF3CGF:CD106/VCAM-1 | -0.032 ± 0.027 | -0.0925 ± 0.018 | -0.281 ± 0.026 | -0.0785 ± 0.0021 | -0.207 ± 0.14 | -0.152 ± 0.026 | -0.291 ± 0.04 | -0.0845 ± 0.0021 | -0.15 ± 0.0057 | -0.21 ± 0.013 | -0.045 ± 0.0071 | -0.0195 ± 0.071 | -0.05 ± 0.12 | -0.021 ± 0.0099 | -0.122 ± 0.012 | -0.004 ± 0.016 | -0.0265 ± 0.0064 | -0.0005 ± 0.074 | -0.067 ± 0.096 |
| lMphg:sIL-10 | 0.015 ± 0.0014 | -0.0445 ± 0.0092 | -0.647 ± 0.025 | -0.044 ± 0.0057 | -0.039 ± 0.0042 | -0.022 ± 0.013 | -0.044 ± 0.02 | -0.023 ± 0.024 | -0.042 ± 0.023 | -0.561 ± 0.13 | -0.0745 ± 0.037 | -0.0775 ± 0.056 | -0.102 ± 0.0078 | -0.032 ± 0.0014 | -0.0315 ± 0.033 | -0.0375 ± 0.056 | -0.036 ± 0.054 | 0.0205 ± 0.0078 | -0.015 ± 0.0085 |
| lMphg:IL-1alpha | -0.003 ± 0.028 | 0.0235 ± 0.015 | 0.0125 ± 0.012 | -0.0415 ± 0.0035 | -0.0175 ± 0.0078 | -0.0105 ± 0.052 | -0.0015 ± 0.0092 | -0.0105 ± 0.056 | -0.021 ± 0.011 | 0.021 ± 0.011 | -0.004 ± 0.0057 | -0.0095 ± 0.023 | -0.022 ± 0.031 | 0.021 ± 0.068 | 0.004 ± 0.05 | -0.0215 ± 0.013 | 0.0085 ± 0.074 | 0.014 ± 0.027 | 0.0635 ± 0.046 |
| MyoF:TIMP-1 | 0.069 ± 0.02 | 0.0605 ± 0.03 | 0.111 ± 0.0021 | 0.004 ± 0.0071 | 0.001 ± 0.011 | 0.025 ± 0.0028 | 0.0325 ± 0.0064 | 0.044 ± 0.03 | 0.174 ± 0.031 | 0.164 ± 0.0014 | 0.001 ± 0.014 | -0.0545 ± 0.053 | -0.0205 ± 0.0035 | 0.0075 ± 0.049 | 0.0345 ± 0.013 | -0.0265 ± 0.015 | -0.0465 ± 0.023 | -0.0445 ± 0.063 | -0.006 ± 0.057 |
| CASM3C:SRB | 0.011 ± 0.0042 | 0.004 | 0.006 | 0.0075 ± 0.016 | 0.005 ± 0.0042 | -0.002 ± 0.0014 | -0.0065 ± 0.00071 | 0.003 ± 0.0071 | -0.0025 ± 0.0092 | -0.0005 ± 0.0092 | -0.001 ± 0.0028 | -0.0035 ± 0.0021 | 0.0065 ± 0.005 | -0.011 ± 0.0028 | 0.0025 ± 0.0092 | -0.0025 ± 0.0035 | -0.0085 ± 0.00071 | -0.001 ± 0.0028 | 0.0045 ± 0.0078 |
